Measured values: patent publication US20040142851A1, “Hydrazinopeptoids and their uses for treating cancers” (priority 2001, published 2004)
Values belong to the compound of their own block, whether it stands above or below them. Square brackets hold non-standard residues; d marks the D form. Peptide text beside a SMILES is read from it. * marks the point of attachment. Nle = CCCC[C@H](N)C(=O)O; Cbz = O=C(OCc1ccccc1)*

Experiments:
XL2 cells [1] = assay: FACS analysis, % of cells blocked in G2/M in XL2 cell cultures; format: cell-based, Xenopus; conditions: for concentration in the medium necessary to obtain a blockage in mitosis / percentage of cells blocked in mitosis, compared with ALLN (in words): XL2 cell cultures
Description: The molecules synthesized were tested in vitro on the proteolytic activities described of the proteasome, then in vivo on Xenopus (XL2) cell cultures. Knowledge of the cell cycle of XL2 cells has made it possible to carry out synchronization experiments and also to evaluate the duration of each of the phases of the cycle. […]

[2] = molecular target: purified proteasome (chymotrypsin activity) (Homo sapiens, UniProt P28074); assay: Inhibition of the chymotrypsin catalytic activity of the purified proteasome; format: biochemical
Excerpt: In vitro analyses of the inhibitory potentialities of the Hydrazinoazapeptoids synthesized vis-à-vis the enzyme activities of the proteasome.
The inhibitory potentialities of the hydrazinoazapeptoids have been quantified with respect to the chymotrypsin enzyme activities of the purified proteasome. The results are expressed as percentages of activity inhibition.
Measurement of the inhibitory properties of the synthesized compounds on the chymotrypsin catalytic activity of the purified proteasome.

[3] = test system: mouse leukaemia cell cultures; assay: Antiproliferative effect on mouse leukaemia cell cultures; format: cell-based
Excerpt: We have analyzed the effect of the retro compounds on mouse leukaemia cell cultures and confirm that among these products, three compounds have an antiproliferative effect. This effect has been observed on two other cell types, rat hepatocytes and a human breast cancer line.

XL2 cells [4] = assay: Fluorescence microscopy analysis of the stages of mitosis; format: cell-based, Xenopus; conditions: for % Anaphase + Telophase / % Metaphase / % Prophase: 50 cells blocked in mitosis
Description: The molecules synthesized were tested in vitro on the proteolytic activities described of the proteasome, then in vivo on Xenopus (XL2) cell cultures. Knowledge of the cell cycle of XL2 cells has made it possible to carry out synchronization experiments and also to evaluate the duration of each of the phases of the cycle.
Observation of the nuclear content makes it possible to determine the different stages of the mitosis. The following results were obtained using 50 cells blocked in mitosis. The first 7 inhibitors were studied using fluorescence microscopy.

[5] = test system: cell cycle progression (mitosis); conditions: lower concentrations only slow down the mitosis; cited from earlier work

Compound: PhCO—N^αhLeu-N-azaLeu-CF3 [P11]
% of cells blocked in G2/M (XL2 cells [1]; 144 μM, 7 h): 17.2% | % inhibition of chymotrypsin activity of the purified proteasome ([2]; 2 mM compound): 40%

Compound: Z-N^αhLeu-N-azaPhe-CH2Br [P21]
effect on proliferation (in words) [3]: proliferation inhibitors | effect on viability of the cells / cell death (in words) [3]: do not affect the viability of the cells

Compound: BrH2COC—N^αhPhe-N-azaLeu-Z [PR2]
effect on proliferation (in words) [3]: inhibit proliferation | effect on viability of the cells / cell death (in words) [3]: cause cell death

Compound: Z-N^αhLeu-N-azaLys-COCH2Br [P22]
effect on proliferation (in words) [3]: inhibit proliferation | effect on viability of the cells / cell death (in words) [3]: cause cell death

Compound: PhCO—N^αhLeu-N-azaLeu-CO2Et [P10]
% of cells blocked in G2/M (XL2 cells [1]; 143 μM, 7 h): 23.1% | % inhibition of chymotrypsin activity of the purified proteasome ([2]; 2 mM compound): 42%

Compound: CCCC[C@@H](C=O)NC(=O)[C@H](CC(C)C)NC(=O)[C@H](CC(C)C)NC(C)=O [ALLN, N-acetyl-leucinyl-leucinyl-norleucinal, reference compound] (Ac-Leu-Leu-[Nle]-aldehyde)
% Anaphase + Telophase (XL2 cells [4]): 3% | % Metaphase (XL2 cells [4]): 83% | % Prophase (XL2 cells [4]): 15% | concentration producing an extended stop in mitosis [5]: > 50 µg/mL | % of cells blocked in G2/M (XL2 cells [1]; 100 μM, 7 h): 53% | concentration in the medium necessary to obtain a blockage in mitosis (XL2 cells [1]): 100 µM | % inhibition of chymotrypsin activity of the purified proteasome ([2]; 1 mM compound): 91% | inhibition at 1000 µM ([2]; 1 mM compound): 90%

Compound: o-B(OH)2-Ph-HC═N^αhLeu-N-azaLeu-Z [PR6]
effect on proliferation (in words) [3]: proliferation inhibitors | effect on viability of the cells / cell death (in words) [3]: do not affect the viability of the cells

Compound: m-B(OH)2-Ph-HC═N^αhPhe-N-azaLeu-Z [PR8]
effect on proliferation (in words) [3]: inhibit proliferation | effect on viability of the cells / cell death (in words) [3]: cause cell death

Compound: CC(C)C[C@@H](C=O)NC(=O)[C@H](CC(C)C)NC(=O)[C@H](CC(C)C)NC(=O)OCc1ccccc1 [MG132, benzyloxycarbonyl leucinyl-leucinyl-leucinal, reference compound] (Cbz-Leu-Leu-Leu-aldehyde)
% of cells blocked in G2/M (XL2 cells [1]; 50 μM, 7 h): 60.6%

Compound: COC(=O)N(CC(C)C)NC(=O)CN(CC(C)C)NC(=O)OC(C)(C)C [P2]
% Anaphase + Telophase (XL2 cells [4]): 46% | % Metaphase (XL2 cells [4]): 36% | % Prophase (XL2 cells [4]): 18% | % of cells blocked in G2/M (XL2 cells [1]; 160 μM, 7 h): 6.7% | inhibition at 2000 µM ([2]; 2 mM compound): 47%

Compound: CCCCN(NC(=O)C(=O)OCC)C(=O)CN(CC(C)C)NC(=O)OC(C)(C)C [P3, Boc-N^αhLeu-N-azaNorleu-CO2Et]
melting point: 105 °C | % Anaphase + Telophase (XL2 cells [4]): 53% | % Metaphase (XL2 cells [4]): 26% | % Prophase (XL2 cells [4]): 21% | % of cells blocked in G2/M (XL2 cells [1]; 144 μM, 4 h): 14.9% | % of cells blocked in G2/M (XL2 cells [1]; 144 μM, 6 h): 15.2% | % of cells blocked in G2/M (XL2 cells [1]; 144 μM, 8 h): 13.8% | inhibition at 2000 µM ([2]; 2 mM compound): 31%

Compound: F3COC—N^αhLeu-N-azaLeu-Z [PR5]
effect on proliferation (in words) [3]: inhibit proliferation | effect on viability of the cells / cell death (in words) [3]: cause cell death

Compound: CC(C)CN(CC(=O)NN(CC(C)C)C(=O)C(F)(F)F)NC(=O)OC(C)(C)C [P1, Boc-N^αhLeu-azaLeu-CF3]
melting point: 105 °C | % Anaphase + Telophase (XL2 cells [4]): 51% | % Metaphase (XL2 cells [4]): 35% | % Prophase (XL2 cells [4]): 14% | % of cells blocked in G2/M (XL2 cells [1]; 145 μM, 7 h): 9.2% | inhibition at 2000 µM ([2]; 2 mM compound): 29%

Compound: BrH2COC—N^αhPhe-azaLeu-Z [PR3]
effect on proliferation (in words) [3]: inhibit proliferation | effect on viability of the cells / cell death (in words) [3]: cause cell death

Compound: o-B(OH)2-Ph-HC═N^αhPhe-N-azaLeu-Z [PR7]
effect on proliferation (in words) [3]: proliferation inhibitors | effect on viability of the cells / cell death (in words) [3]: do not affect the viability of the cells

Continued, in another order:

melting point: 138 °C | inhibition at 2000 µM ([2]; 2 mM compound): 23%
Compound: CC(C)CN(CC(=O)N(CC(C)C)NC(N)=O)NC(=O)OC(C)(C)C [P7, Boc-N^αhLeu-N-azaLeu-CONH2]
inhibitory selectivity during the different stages of mitosis (in words) (XL2 cells [4]): much less selective | % Anaphase + Telophase (XL2 cells [4]): 38% | % Metaphase (XL2 cells [4]): 35% | % Prophase (XL2 cells [4]): 27% | % of cells blocked in G2/M (XL2 cells [1]; 167 μM, 7 h): 12.3%

inhibition at 2000 µM ([2]; 2 mM compound): 34%
Compound: CCSCC(=O)NN(CC(C)C)C(=O)CN(CC(C)C)NC(=O)OC(C)(C)C [P16]
% of cells blocked in G2/M (XL2 cells [1]; 143 μM, 7 h): 24.2%

inhibition at 2000 µM ([2]; 2 mM compound): 30%
Compound: CCOC(=O)C(=O)NN(CC(C)C)C(=O)CN(CC(C)C)NC(=O)OC(C)(C)C [P9, Boc-N^αhLeu-N-azaLeu-CO2Et]
% of cells blocked in G2/M (XL2 cells [1]; 144 μM, 7 h): 14.1%

melting point: 110 °C | inhibition at 2000 µM ([2]; 2 mM compound): 28%
Compound: CC(C)CN(CC(=O)N(CC(C)C)NC(=O)C(F)(F)F)NC(=O)OC(C)(C)C [P8, Boc-N^αhLeu-N-azaLeu-CF3]
% of cells blocked in G2/M (XL2 cells [1]; 146 μM, 7 h): 19.1%

melting point: 124 °C | inhibition at 2000 µM ([2]; 2 mM compound): 35%
Compound: CC(C)CN(CC(=O)N(CC(C)C)NC=O)NC(=O)OC(C)(C)C [P13, Boc-N^αhLeu-N-azaLeu-H]
% of cells blocked in G2/M (XL2 cells [1]; 174 μM, 7 h): 20.8%

inhibition at 2000 µM ([2]; 2 mM compound): 38%
Compound: CC(C)CN(CC(=O)N(CC(N)=O)CC(C)C)NC(=O)OC(C)(C)C [P6]
inhibitory selectivity during the different stages of mitosis (in words) (XL2 cells [4]): mostly blocks cells at the end of mitosis | % Anaphase + Telophase (XL2 cells [4]): 58% | % Metaphase (XL2 cells [4]): 24% | % Prophase (XL2 cells [4]): 18% | % of cells blocked in G2/M (XL2 cells [1]; 167 μM, 7 h): 9.2%

inhibition at 2000 µM ([2]; 2 mM compound): 29%
Compound: CCCCN(NC(=O)C(F)(F)F)C(=O)CN(CC(C)C)NC(=O)OC(C)(C)C [P4, Boc-N^αhLeu-N-azaNorleu-CF3]
% Anaphase + Telophase (XL2 cells [4]): 42% | % Metaphase (XL2 cells [4]): 42% | % Prophase (XL2 cells [4]): 16% | % of cells blocked in G2/M (XL2 cells [1]; 145 μM, 4 h): 16.5% | % of cells blocked in G2/M (XL2 cells [1]; 145 μM, 8 h): 13.4%

% inhibition of chymotrypsin activity of the purified proteasome ([2]; 2 mM compound): 71% | inhibition at 2000 µM ([2]; 2 mM compound): 70%
Compound: CC(C)CN(CC(=O)N(CC(C)C)NC(=O)CBr)NC(=O)OC(C)(C)C [P14, Boc-N^αhLeu-N-azaLeu-CH2Br]
% of cells blocked in G2/M (XL2 cells [1]; 2 μM, 0.5 h): 48.2% | % of cells blocked in G2/M (XL2 cells [1]; 4 μM, 0.5 h): 44.8% | % of cells blocked in G2/M (XL2 cells [1]; 11 μM, 0.5 h): 47.4% | % of cells blocked in G2/M (XL2 cells [1]; 22 μM, 0.5 h): 46.2% | % of cells blocked in G2/M (XL2 cells [1]; 45 μM, 0.5 h): 48.3% | % of cells blocked in G2/M (XL2 cells [1]; 91 μM, 0.5 h): 50.2% | % of cells blocked in G2/M (XL2 cells [1]; 137 μM, 1 h): 50.2% | concentration in the medium necessary to obtain a blockage in mitosis (XL2 cells [1]): 2 µM | percentage of cells blocked in mitosis, compared with ALLN (in words) (XL2 cells [1]): activity comparable to that of the ALLN

inhibition at 2000 µM ([2]; 2 mM compound): 48%
Compound: CC(C)CN(CC(=O)N(CC(C)C)NC(=O)CC#N)NC(=O)OC(C)(C)C [P12]
% of cells blocked in G2/M (XL2 cells [1]; 156 μM, 7 h): 23.5%

melting point: 186 °C
Compound: CC(C)CN(CC(=O)N(CC(C)C)/N=C/c1ccc(B(O)O)cc1)NC(=O)OC(C)(C)C [P15p, Boc-N^αhLeu-N-azaLeu-CH-Ph-p-B(OH)2]

melting point: 147 °C | inhibition at 2000 µM ([2]; 2 mM compound): 32%
Compound: CCOC(=O)C(=O)N(CC(C)C)NC(=O)CN(CC(C)C)NC(=O)OC(C)(C)C [P5, Boc-N^αhLeu-azaLeu-CO2Et]
% Anaphase + Telophase (XL2 cells [4]): 37% | % Metaphase (XL2 cells [4]): 45% | % Prophase (XL2 cells [4]): 18% | % of cells blocked in G2/M (XL2 cells [1]; 144 μM, 7 h): 5.2%

melting point: 159 °C
Compound: CC(C)CN(CC(=O)N(CC(C)C)/N=C/c1ccccc1B(O)O)NC(=O)OC(C)(C)C [P15o, Boc-N^αhLeu-N-azaLeu-CH-Ph-o-B(OH)2]

melting point: 135 °C | % inhibition of chymotrypsin activity of the purified proteasome ([2]; 2 mM compound): 80% | inhibition at 2000 µM ([2]; 2 mM compound): 70%
Compound: CC(C)CN(CC(=O)N(Cc1ccccc1)NC(=O)CBr)NC(=O)OC(C)(C)C [P17, Boc-N^αhLeu-N-azaPhe-COCH2Br]
% of cells blocked in G2/M (XL2 cells [1]; 21 μM, 0.5 h): 46.8% | % of cells blocked in G2/M (XL2 cells [1]; 42 μM, 0.5 h): 47.3% | % of cells blocked in G2/M (XL2 cells [1]; 85 μM, 0.5 h): 50.9% | % of cells blocked in G2/M (XL2 cells [1]; 127 μM, 0.5 h): 42.8% | % of cells blocked in G2/M (XL2 cells [1]; 127 μM, 1 h): 41.7% | % of cells blocked in G2/M (XL2 cells [1]; 127 μM, 2 h): 38.3% | percentage of cells blocked in mitosis, compared with ALLN (in words) (XL2 cells [1]): activity comparable to that of the ALLN

inhibition at 2000 µM ([2]; 2 mM compound): 38%
Compound: CC(C)CN(CC(=O)N(CC(C)C)/N=C/c1cccc(B(O)O)c1)NC(=O)OC(C)(C)C [P15, Boc-N^αhLeu-N-azaLeu-CH-Ph-m-B(OH)2]
% of cells blocked in G2/M (XL2 cells [1]; 133 μM, 7 h): 35.8%
